Experimental data: paper PMC5908784, “Extracellular loops 2 and 3 of the calcitonin receptor selectively modify agonist binding and efficacy” (Biochemical Pharmacology, 2018)
Positions count from the first letter of the chain named. Where no end group is shown, it is not given here.

How the values were obtained:
Experiment in all cases: Homologous whole cell competition binding
Details in all cases: homologous competition of 125I-sCT(8-32), whole cells, mean ± S.E.M., SEM
hCTR P360A = target: T1, hCTR P360A (Homo sapiens, UniProt P30988, P360A)
T1 construct: expressed in transfected cells
T1 sequence (P30988 25-474 P360A): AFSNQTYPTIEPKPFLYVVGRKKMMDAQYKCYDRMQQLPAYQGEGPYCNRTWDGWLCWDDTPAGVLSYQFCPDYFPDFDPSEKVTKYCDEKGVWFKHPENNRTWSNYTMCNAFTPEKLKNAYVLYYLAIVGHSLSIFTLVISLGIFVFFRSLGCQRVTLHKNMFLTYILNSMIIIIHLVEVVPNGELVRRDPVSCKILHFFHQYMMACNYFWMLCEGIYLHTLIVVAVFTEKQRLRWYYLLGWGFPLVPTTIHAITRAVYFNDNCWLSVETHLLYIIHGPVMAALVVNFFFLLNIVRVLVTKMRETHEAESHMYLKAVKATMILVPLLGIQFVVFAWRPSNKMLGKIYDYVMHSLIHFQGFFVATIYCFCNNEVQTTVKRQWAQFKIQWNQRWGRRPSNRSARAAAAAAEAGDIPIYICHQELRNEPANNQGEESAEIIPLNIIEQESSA
Procedure, shortened: (§1)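 Values are pKi, derived from IC50 of unlabelled sCT(8-32) displacing ^125I-sCT(8-32) (25–100 pM) from whole cells after overnight incubation at 4 °C. Specific binding was scaled between tracer-only total and 1 μM cold-peptide background.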

hCTR E294A = target: T2, hCTR E294A (Homo sapiens, UniProt P30988, E294A)
T2 construct: c-Myc (N); expressed in transfected cells
T2 sequence (P30988 25-474 E294A): T1 sequence (P30988 25-474 P360A) with E270A, A336P
Procedure, shortened: as §1

hCTR F285A = target: T3, hCTR F285A (Homo sapiens, UniProt P30988, F285A)
T3 construct: expressed in transfected cells
T3 sequence (P30988 25-474 F285A): T1 sequence (P30988 25-474 P360A) with F261A, A336P
Procedure, shortened: as §1

hCTR S292A = target: T4, hCTR S292A (Homo sapiens, UniProt P30988, S292A)
T4 construct: expressed in transfected cells
T4 sequence (P30988 25-474 S292A): T1 sequence (P30988 25-474 P360A) with S268A, A336P
Procedure, shortened: as §1

With “VLGKLSQELHKLQTYPRTNTGSGTP-NH2 [sCT(8-32)]” the Ki (hCTR P360A) was 0.603 nM, the Ki (hCTR E294A) was 0.263 nM and the Ki (hCTR F285A) was 0.102 nM. It also gave a Ki (hCTR S292A) of 0.0631 nM.
